Reference: patent publication US9738653B2, “Fused furans for the treatment of hepatitis C” (BRISTOL-MYERS SQUIBB COMPANY, priority 2013, dated 2017)
pEC50: −log10 of the molar value.

Test system: genotype 1b (Con-1) HCV replicon in Huh-7 cells
Assay: HCV replicon luciferase assay
Type: cell-based
Details: 1b replicon, Renilla luciferase, 3 days incubation
Procedure: The cell lines used to evaluate compounds consist of a human hepatocyte derived cell line (Huh-7) that constitutively expresses a genotype 1b (Con-1) HCV replicon or a genotype 1b (Con-1) HCV replicon with an asparagine replacing the cysteine at amino acid 316, or a genotype 2a (JFH-1) replicon, containing a Renilla luciferase reporter gene. These cells were maintained in Dulbecco's modified Eagle medium (DMEM) containing 10% FBS, 100 U/mL penicillin/streptomycin and 1.0 mg/mL G418.
To evaluate compound efficacy, titrated compounds were transferred to sterile 384-well tissue culture treated plates, and the plates were seeded with HCV replicon cells ([…] at a density of 2.4×10^3 cells/well) in DMEM containing 4% FBS (final DMSO concentration at 0.5%). After 3 days incubation at 37° C., cells were analyzed for Renilla Luciferase activity using the EnduRen substrate (Promega cat #E6485) according to the manufacturer's directions. Briefly, the EnduRen substrate was diluted in DMEM and then added to the plates to a final concentration of 7.5 μM. The plates were incubated for at least 1 h at 37° C. then read on a Viewlux Imager (PerkinElmer) using a luminescence program. The 50% effective concentration (EC50) was calculated using the four-parameter logistic formula noted above.

Row | SMILES | pEC50 (Hepatitis C virus, Huh-7, 72 h) | pEC50
1 | CNC(=O)c1c(-c2ccc(F)cc2)oc2cc(CC(=O)N(C)C)c(-c3ccc(F)c(C(=O)NC45CC(C4)C5)c3)cc12 | 6.28 | 
2 | CNC(=O)c1c(-c2ccc(F)cc2)oc2cc(CCCOC(=O)c3ccccc3)c(-c3cccc(C(=O)NC45CC(C4)C5)c3)cc12 | 6.85 | 
3 | CNC(=O)c1c(-c2ccc(F)cc2)oc2cc(CC(=O)O)c(-c3ccc(F)c(C(=O)NC45CC(C4)C5)c3)cc12 | 5.09 | 
4 | CNC(=O)c1c(-c2ccc(F)cc2)oc2cc(OCC(F)(F)F)c(-c3cccc(C(=O)NC45CC(C4)C5)c3)cc12 | 8.00 | 
5 | CNC(=O)c1c(-c2ccc(F)cc2)oc2cc(CCC(F)(F)F)c(-c3cccc(C(=O)NC45CC(C4)C5)c3)cc12 | 7.52 | 
6 | CNC(=O)c1c(-c2ccc(F)cc2)oc2cc(CC(=O)O)c(-c3cccc(C(=O)NC45CC(C4)C5)c3)cc12 | < 5.00 | 
7 | CNC(=O)Cc1cc2oc(-c3ccc(F)cc3)c(C(=O)NC)c2cc1-c1ccc(F)c(C(=O)NC23CC(C2)C3)c1 | 7.30 | 
8 | CNC(=O)c1c(-c2ccc(F)cc2)oc2cc(COC)c(-c3cccc(C(=O)NC45CC(C4)C5)c3)cc12 | 8.21 | 
9 | CNC(=O)c1c(-c2ccc(F)cc2)oc2cc(CC(=O)N(C)C)c(-c3cccc(C(=O)NC45CC(C4)C5)c3)cc12 | 6.51 | 
10 | CNC(=O)c1c(-c2ccc(F)cc2)oc2cc(CC(=O)OC)c(-c3ccc(F)c(C(=O)NC45CC(C4)C5)c3)cc12 | 7.70 | 
11 | CNC(=O)c1c(-c2ccc(F)cc2)oc2cc(N)c(-c3ccc(OC)c(C(=O)NC45CC(C4)C5)c3)cc12 | 8.00 | 
12 | CNC(=O)c1c(-c2ccc(F)cc2)oc2cc(CS(C)(=O)=O)c(-c3ccc(F)c(C(=O)NC45CC(C4)C5)c3)cc12 | 7.15 | 
13 | CNC(=O)c1c(-c2ccc(F)cc2)oc2cc(CS(C)(=O)=O)c(-c3cccc(C(=O)NC45CC(C4)C5)c3)cc12 | 7.15 | 
14 | CNC(=O)c1c(-c2ccc(F)cc2)oc2nc(CCC(F)(F)F)c(-c3csc(C(=O)NC45CC(C4)C5)c3)cc12 | 7.70 | 
15 | CNC(=O)c1c(-c2ccc(F)cc2)oc2nc(NCC(F)(F)F)c(-c3cccc(C(=O)NC45CC(C4)C5)c3)cc12 | 8.45 | 
16 | CNC(=O)c1c(-c2ccc(F)cc2)oc2nc(N(CC(F)(F)F)S(C)(=O)=O)c(-c3cccc(C(=O)NC45CC(C4)C5)c3)cc12 | 7.70 | 
17 | CNC(=O)c1c(-c2ccc(F)cc2)oc2cc(CCC(F)(F)F)c(-c3ccc(F)c(C(=O)NC45CC(C4)C5)c3)c(F)c12 | 7.40 | 
18 | CNC(=O)c1c(-c2ccc(F)cc2)oc2cc(CCC(F)(F)F)c(-c3cccc(C(=O)NC45CC(C4)C5)c3)c(F)c12 | 8.00 | 
19 | CNC(=O)Cc1cc2oc(-c3ccc(F)cc3)c(C(=O)NC)c2cc1-c1cccc(C(=O)NC23CC(C2)C3)c1 | 7.30 | 
20 | CCC(C)c1cc2oc(-c3ccc(F)cc3)c(C(=O)NC)c2cc1-c1cccc(C(=O)NC23CC(C2)C3)c1 (stereo not shown) [drawing 305] |  | 7.70
21 | CNC(=O)c1c(-c2ccc(F)cc2)oc2nc(NCC(F)(F)F)c(-c3cc(C(=O)NC45CC(C4)C5)ccc3OC)cc12 | 8.04 | 
22 | CNC(=O)c1c(-c2ccc(F)cc2)oc2cc(CC(N)=O)c(-c3ccc(F)c(C(=O)NC45CC(C4)C5)c3)cc12 | 8.00 | 
